What was measured:
[1] = molecular target: T1, Tyrosine-protein kinase BTK (Homo sapiens, UniProt Q06187); assay: Inhibition of BTK (unknown origin) after 1 hr by TR-FRET analysis
[2] = molecular target: T1, Tyrosine-protein kinase BTK; assay: Inhibition of BTK in human Ramos cells after 20 mins by fluorescence assay; format: cell-based

T1 sequence (Q06187 whole entry): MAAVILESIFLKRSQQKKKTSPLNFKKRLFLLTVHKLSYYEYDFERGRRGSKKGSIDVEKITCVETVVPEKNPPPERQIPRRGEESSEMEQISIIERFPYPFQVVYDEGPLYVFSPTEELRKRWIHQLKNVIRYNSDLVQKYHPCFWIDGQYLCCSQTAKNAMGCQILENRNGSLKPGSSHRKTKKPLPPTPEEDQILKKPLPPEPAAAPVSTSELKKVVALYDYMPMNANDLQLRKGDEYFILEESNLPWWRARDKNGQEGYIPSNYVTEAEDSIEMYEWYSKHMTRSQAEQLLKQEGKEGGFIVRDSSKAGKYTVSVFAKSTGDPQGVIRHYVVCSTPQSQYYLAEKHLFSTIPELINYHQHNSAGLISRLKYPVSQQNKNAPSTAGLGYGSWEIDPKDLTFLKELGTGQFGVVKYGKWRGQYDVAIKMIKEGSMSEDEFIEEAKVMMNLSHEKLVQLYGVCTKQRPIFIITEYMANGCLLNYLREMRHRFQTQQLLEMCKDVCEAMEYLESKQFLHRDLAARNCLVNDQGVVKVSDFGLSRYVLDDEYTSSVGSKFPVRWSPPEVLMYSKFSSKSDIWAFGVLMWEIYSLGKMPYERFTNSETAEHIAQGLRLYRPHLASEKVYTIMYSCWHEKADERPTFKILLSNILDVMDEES

Compound | IC50 [1] [nM] | IC50 [2] [nM]
O=C(N1CC=C(c2cc3c(-c4cccc(-n5ccc6cc(C7CC7)cc(F)c6c5=O)c4CO)ncnc3[nH]2)CC1)N1CCOCC1 | 4.8 | 17
COc1ccc(-c2cc3c(-c4cccc(-n5ccc6cc(C7CC7)cc(F)c6c5=O)c4CO)ncnc3[nH]2)cc1 | 58.3 | 38.8
CC(=O)c1ccc(-c2cc3c(-c4cccc(-n5ccc6cc(C7CC7)cc(F)c6c5=O)c4CO)ncnc3[nH]2)cc1 | 41.7 | 49
CNC(=O)N1CC=C(c2cc3c(-c4cccc(-n5ccc6cc(C7CC7)cc(F)c6c5=O)c4CO)ncnc3[nH]2)CC1 | 25.2 | 51.3
CN(C)C(=O)c1cc2c(-c3cccc(-n4ccc5cc(C6CC6)cc(F)c5c4=O)c3CO)ncnc2[nH]1 | 1360 | 1560
O=c1c2c(F)cc(C3CC3)cc2ccn1-c1cccc(-c2ncnc3[nH]c(C4=CCN(c5ncccn5)CC4)cc23)c1CO | 45.3 | 69.7
Cn1ccc(-c2cc3c(-c4cccc(-n5ccc6cc(C7CC7)cc(F)c6c5=O)c4CO)ncnc3[nH]2)n1 | 21.3 | 38
CN(C)C(=O)c1cccc(-c2cc3c(-c4cccc(-n5ccc6cc(C7CC7)cc(F)c6c5=O)c4CO)ncnc3[nH]2)c1 | 69 | 87.3
CC(=O)N1CC=C(c2cc3c(-c4cccc(-n5ccc6cc(C7CC7)cc(F)c6c5=O)c4CO)ncnc3[nH]2)CC1 | 15.3 | 21.4
O=c1c2c(F)cc(C3CC3)cc2ccn1-c1cccc(-c2ncnc3[nH]c(-c4cc[nH]n4)cc23)c1CO | 38.8 | 47
CN(C)C(=O)N1CC=C(c2cc3c(-c4cccc(-n5ccc6cc(C7CC7)cc(F)c6c5=O)c4CO)ncnc3n2C)CC1 | > 5000 | > 5000
O=C(c1ccc(-c2cc3c(-c4cccc(-n5ccc6cc(C7CC7)cc(F)c6c5=O)c4CO)ncnc3[nH]2)cc1)N1CCOCC1 | 18.2 | 10
CN1CC=C(c2cc3c(-c4cccc(-n5ccc6cc(C7CC7)cc(F)c6c5=O)c4CO)ncnc3[nH]2)CC1 | 57.1 | 125

Further molecules by falling IC50 [1], results first:

IC50 [1] [nM] | IC50 [2] [nM] | Compound
1570 | > 5000 | O=c1c2c(F)cc(C3CC3)cc2ccn1-c1cccc(-c2ncnc3[nH]ccc23)c1CO
574 | 1650 | CN(C)C(=O)N1CCC(c2cc3c(-c4cccc(-n5ccc6cc(C7CC7)cc(F)c6c5=O)c4CO)ncnc3[nH]2)CC1
197 | 74 | COc1ccc(-c2cc3c(-c4cccc(-n5ccc6cc(C7CC7)cc(F)c6c5=O)c4CO)ncnc3[nH]2)cn1
136 | 65 | Nc1cccc(-c2cc3c(-c4cccc(-n5ccc6cc(C7CC7)cc(F)c6c5=O)c4CO)ncnc3[nH]2)c1
119 | 58 | CC(=O)c1cc(-c2cc3c(-c4cccc(-n5ccc6cc(C7CC7)cc(F)c6c5=O)c4CO)ncnc3[nH]2)cs1
90.3 | 79 | O=c1c2c(F)cc(C3CC3)cc2ccn1-c1cccc(-c2ncnc3[nH]c(-c4ccccc4)cc23)c1CO
77.8 | 350 | O=c1c2c(F)cc(C3CC3)cc2ccn1-c1cccc(-c2ncnc3[nH]c(C4=CCCCC4)cc23)c1CO
73.9 | 211 | O=c1c2c(F)cc(C3CC3)cc2ccn1-c1cccc(-c2ncnc3[nH]c(-c4ccc(O)cc4)cc23)c1CO
67.1 | 46 | O=c1c2c(F)cc(C3CC3)cc2ccn1-c1cccc(-c2ncnc3[nH]c(C4=CCSCC4)cc23)c1CO
63.6 | 12 | O=c1c2c(F)cc(C3CC3)cc2ccn1-c1cccc(-c2ncnc3[nH]c(-c4ccc(CN5CCOCC5)cc4)cc23)c1CO
50.8 | 65 | O=C(c1ccc(-c2cc3c(-c4cccc(-n5ccc6cc(C7CC7)cc(F)c6c5=O)c4CO)ncnc3[nH]2)cc1)N1CCCCC1
32.5 | 96.5 | O=c1c2c(F)cc(C3CC3)cc2ccn1-c1cccc(-c2ncnc3[nH]c(C4=CCNCC4)cc23)c1CO
31.6 | 33 | CN(C)Cc1ccc(-c2cc3c(-c4cccc(-n5ccc6cc(C7CC7)cc(F)c6c5=O)c4CO)ncnc3[nH]2)cc1
24.8 | 11 | O=c1c2c(F)cc(C3CC3)cc2ccn1-c1cccc(-c2ncnc3[nH]c(C4=CCN(C5COC5)CC4)cc23)c1CO
17.8 | 15 | CN(C)C(=O)c1ccc(-c2cc3c(-c4cccc(-n5ccc6cc(C7CC7)cc(F)c6c5=O)c4CO)ncnc3[nH]2)cc1
16.5 | 26 | CN(C)S(=O)(=O)N1CC=C(c2cc3c(-c4cccc(-n5ccc6cc(C7CC7)cc(F)c6c5=O)c4CO)ncnc3[nH]2)CC1
15.8 | 7.9 | CS(=O)(=O)N1CC=C(c2cc3c(-c4cccc(-n5ccc6cc(C7CC7)cc(F)c6c5=O)c4CO)ncnc3[nH]2)CC1
7 | 21.6 | CN(C)C(=O)N1CC=C(c2cc3c(-c4cccc(-n5ccc6cc(C7CC7)cc(F)c6c5=O)c4CO)ncnc3[nH]2)CC1
